According to ChEMBL document CHEMBL5223072, “A look around the West Indies: The spices of life are secondary metabolites” (Bioorg Med Chem, 2020):
≈ marks a conversion by molar mass, not a printed value. Blank lines part the entries; values can stand above or below the compound they belong to.

Tests used:
SK-OV-3 = test: Antiproliferative activity against human SK-OV-3 cells assessed as cell growth inhibition measured for 72 hrs; assay type: functional, cell-based; conditions: SK-OV-3, 72 h
A549 [1] = test: Antiproliferative activity against human A549 cells assessed as cell growth inhibition measured for 72 hrs; assay type: functional, cell-based; conditions: A549, 72 h
Plasmodium falciparum [2] = test: Antimalarial activity against Plasmodium falciparum D6 assessed as reduction in parasite growth; assay type: functional
Plasmodium falciparum [3] = test: Antimalarial activity against Plasmodium falciparum W2 assessed as reduction in parasite growth; assay type: functional
Staphylococcus aureus [4] = test: Antibacterial activity against Staphylococcus aureus SH1000 cultured in iron depleted media assessed as reduction in bacterial cell growth; assay type: functional
Staphylococcus aureus [5] = test: Antibacterial activity against Staphylococcus aureus SH1000 cultured in iron rich media assessed as reduction in bacterial cell growth; assay type: functional
Candida albicans [6] = test: Antifungal activity against Candida albicans; assay type: functional
[7] = Inhibition of Saccharomyces cerevisiae 20S proteosome
NCI-H460 = test: Cytotoxicity against human NCI-H460 cells assessed as reduction in cell viability; assay type: functional, cell-based
HCT-116 = test: Cytotoxicity against human HCT-116 cells assessed as reduction in cell viability; assay type: functional, cell-based
Streptococcus [8] = test: Antibiofilm activity against Streptococcus assessed as inhibition of biofilm maturation; assay type: functional, organism-based
MAXF401 cell line = test: Cytotoxicity against human NCI-MAXF401 cells assessed as reduction in cell viability; assay type: functional, cell-based
OVCAR-3 = test: Cytotoxicity against human OVCAR-3 cells assessed as reduction in cell viability; assay type: functional, cell-based
[9] = Cytotoxicity against human bladder carcinoma cell assessed as reduction in cell viability; assay type: functional, cell-based
A549 [10] = test: Antiproliferative activity against human A549 cells assessed as cell viability by WST-8 colorimetric assay; assay type: functional, cell-based
Streptococcus [11] = test: Antibacterial activity against Streptococcus; assay type: functional
[12] = Inhibition of sodium channel (unknown origin); set-up: species or system Homo sapiens
P388 [13] = test: Antiproliferative activity against mouse P388 cells assessed as cell growth inhibition; assay type: functional, cell-based
[14] = Activation of hypoxia-induced HIF-1 in human T47D cells; assay type: cell-based
Leishmania donovani = test: Antileishmanial activity against Leishmania donovani assessed as parasite growth inhibition; assay type: functional, organism-based
Candida albicans [15] = test: Antifungal activity against Candida albicans as reduction in fungal growth; assay type: functional, organism-based
P388 [16] = test: Antiproliferative activity against mouse P388 cells assessed as cell viability by WST-8 colorimetric assay; assay type: functional, cell-based
MCF7 = test: Antiproliferative activity against human MCF7 cells assessed as cell viability by WST-8 colorimetric assay; assay type: functional, cell-based

SMILES: C=C/C=C\[C@H](C)[C@H](OC(N)=O)[C@@H](C)[C@H](O)[C@@H](C)C/C(C)=C\[C@H](C)[C@@H](O)[C@@H](C)/C=C\[C@@H](O)C[C@@H]1OC(=O)C(C)=C[C@H]1C
IC50 (SK-OV-3): 6.1 nM | IC50 (A549 [1]): 1.8 nM

SMILES: CC(C)=CCC[C@H](C)c1ccc(C)cc1O
MIC (Plasmodium falciparum [2]): 1.8 µg/mL (≈ 8.24 µM) | MIC (Plasmodium falciparum [3]): 3.6 µg/mL (≈ 16.5 µM)

SMILES: CCC(=O)[C@@H](C)C[C@@H](C)C[C@@H](C)CC[C@H](O)C[C@H](O)[C@H](CC(C)C)[C@H](O)c1cc(O)cc(O)c1
MIC (Staphylococcus aureus [4]): 125 µM (≈ 60.1 µg/mL) | MIC (Staphylococcus aureus [5]): 125 µM (≈ 60.1 µg/mL)

SMILES: CO[C@H]1[S+]([O-])/C2=C\C(=O)[C@](C)(O[C@H]3CC[C@H](N(C)C)[C@@H](C)O3)[C@H](O)CC/C(C)=C\[C@@H]3[C@@H](C)[C@](C)(Cl)[C@@H](C[C@H]3O[C@H]3CC[C@H](N(C)C)[C@@H](C)O3)OC(=O)[C@@H]3CSC(=N3)[C@]1(C)N2 (some centres not stated)
MIC (Candida albicans [6]): 16 µg/mL (≈ 17.7 µM)

SMILES: CC1=CC[C@H]2[C@](C)(CO)CCC[C@]2(C)[C@H]1C[C@@]12O[C@@H]1C(=O)C(CO)=C[C@H]2O [EPOXYPHOLAMIN A]
IC50 (MAXF401 cell line): 0.01 µg/mL (≈ 0.0266 µM) | IC50 (OVCAR-3): 0.017 µg/mL (≈ 0.0452 µM) | IC50 [9]: 0.017 µg/mL (≈ 0.0452 µM)

SMILES: CC(C)C[C@H]([C@H](O)c1cc(O)cc(O)c1)[C@@H](O)C[C@@H](O)CC[C@H](C)C[C@H](C)C[C@H](C)CO
MIC (Staphylococcus aureus [4]): 500 µM (≈ 227 µg/mL) | MIC (Staphylococcus aureus [5]): 500 µM (≈ 227 µg/mL)

SMILES: C#CCCC/C(=C\Cl)CCC(C)/C=C/CCC(=O)NCC/C(=C\C(=O)N1C(=O)C=C[C@@H]1C)OC (some centres not stated)
IC50 [12]: 5000 nM

SMILES: C=C/C=C\[C@H](C)[C@H](OC(N)=O)[C@@H](C)[C@H](O)[C@@H](C)C/C(C)=C\[C@H](C)[C@@H](O)[C@@H](C)/C=C\[C@@H](O)C[C@@H]1OC(=O)[C@H](C)[C@@H](O)[C@H]1C [DISERMOLIDE]
IC50 (SK-OV-3): 6.1 nM | IC50 (P388 [13]): 0.5 µg/mL (≈ 0.842 µM) | IC50 (A549 [1]): 1.8 nM

SMILES: C=C[C@@H]1CSC(C[C@@H](C)[C@@H](C)C[C@H](C)CCN(C)C(=O)[C@H](C)CC)=N1
IC50 [14]: 5.6 nM

SMILES: CC(=O)O[C@H]1C(=O)[C@@]2(C)[C@H]([C@H](OC(=O)c3ccccc3)[C@]3(O)C[C@H](OC(=O)[C@H](O)[C@@H](NC(=O)c4ccccc4)c4ccccc4)C(C)=C1C3(C)C)[C@]1(OC(C)=O)CO[C@@H]1C[C@@H]2O [PACLITAXEL]
IC50 (SK-OV-3): 31.3 nM | IC50 (A549 [1]): 3.8 nM

SMILES: CO/C(=C/C(=O)N1C(=O)C=C[C@@H]1C)CCNC(=O)CC/C=C/C(C)CC/C(=C/Cl)CCCC#CBr (some centres not stated)
IC50 [12]: 5000 nM

SMILES: CCC(=O)CCCCCCC[C@H](O)C[C@H](O)[C@H](CC(C)C)[C@H](O)c1cc(O)cc(O)c1
MIC (Staphylococcus aureus [4]): 250 µM (≈ 110 µg/mL) | MIC (Staphylococcus aureus [5]): > 500 µM

SMILES: CC(C)=CCC[C@H](C)c1ccc(C)cc1OC(=O)c1ccncc1
IC50 (Leishmania donovani): 600 nM

SMILES: C=CCCC/C(=C\Cl)CCC(C)/C=C/CCC(=O)NCC/C(=C\C(=O)N1C(=O)C=C[C@@H]1C)OC (some centres not stated)
IC50 [12]: 5000 nM

SMILES: CC(=O)O[C@@H]1c2nc(cs2)C(=O)O[C@@H](CCCC(C)(Cl)Cl)[C@H](C)C(=O)O[C@@H](C(C)(C)O)c2nc(cs2)C(=O)OC1(C)C [HECTOCHLORIN]
IC50 (Candida albicans [15]): 20 nM

SMILES: CCC[C@H]1C[C@@H](OC)C[C@H](C)C[C@@H]2C[C@@H](OC(=O)/C=C\CCc3coc(/C=C\CNC(=O)OC)n3)C[C@H](CC(=O)O1)O2
IC50 (P388 [16]): 0.72 nM | IC50 (MCF7): 33 nM | IC50 (A549 [10]): 43.9 nM

Further lines, with some results ahead:

MIC (Staphylococcus aureus [4]): 8 µM (≈ 3.4 µg/mL) | MIC (Staphylococcus aureus [5]): 8 µM (≈ 3.4 µg/mL)
SMILES: CCCCCCCCCC[C@H](O)C[C@H](O)[C@H](CC(C)C)[C@H](O)c1cc(O)cc(O)c1

MIC (Staphylococcus aureus [4]): > 500 µM | MIC (Staphylococcus aureus [5]): > 500 µM
SMILES: CCC(=O)[C@@H](C)C[C@@H](C)C[C@@H](C)CC[C@H](O)C[C@H](O)[C@H](CC(C)C)[C@H](O)c1cc(OC)cc(OC)c1

IC50 [7]: 2.5 nM
SMILES: CCCCCC(=O)N[C@H](C(=O)N[C@@H](CC[S+](C)[O-])C(=O)N[C@@H](CC(C)C)C(=O)[C@@]1(C)CO1)C(C)C (some centres not stated)
EC50 (NCI-H460): 9 nM | EC50 (HCT-116): 19 nM

IC50 (Streptococcus [8]): 63000 nM
SMILES: C[C@H]1/C=C/[C@H]2OC(C)(C)O[C@H]2C(=O)O[C@H](c2cccc(CCCCC(=O)O)c2)[C@@H](C)/C=C/C1

IC50 [7]: 2.6 nM
SMILES: CCCCCC(=O)N[C@H](C(=O)N[C@@H](CCS(C)(=O)=O)C(=O)N[C@@H](CC(C)C)C(=O)[C@@]1(C)CO1)C(C)C
EC50 (NCI-H460): 6 nM | EC50 (HCT-116): 43 nM

MIC (Staphylococcus aureus [4]): 500 µM (≈ 233 µg/mL) | MIC (Staphylococcus aureus [5]): 500 µM (≈ 233 µg/mL)
SMILES: CC(=O)[C@@H](C)C[C@@H](C)C[C@@H](C)CC[C@H](O)C[C@H](O)[C@H](CC(C)C)[C@H](O)c1cc(O)cc(O)c1

IC50 (A549 [10]): 1.6 nM
SMILES: CCCCCCOC(=O)C[C@H]1C[C@H](OC(=O)/C=C\CCc2coc(/C=C\CNC(=O)OC)n2)C[C@@H](/C=C/c2ccccc2)O1

IC50 (Streptococcus [8]): 44000 nM | MIC (Streptococcus [11]): 250 µM (≈ 106 µg/mL)
SMILES: C[C@H]1/C=C/[C@H]2OC(C)(C)O[C@H]2C(=O)O[C@H](CCCCCCCC(=O)O)[C@@H](C)CCC1

MIC (Staphylococcus aureus [4]): 125 µM (≈ 60.1 µg/mL) | MIC (Staphylococcus aureus [5]): 125 µM (≈ 60.1 µg/mL)
SMILES: CCC(=O)[C@@H](C)C[C@@H](C)C[C@@H](C)CC[C@H](O)C[C@H](O)[C@@H](CC(C)C)[C@H](O)c1cc(O)cc(O)c1

MIC (Staphylococcus aureus [4]): > 500 µM | MIC (Staphylococcus aureus [5]): > 500 µM
SMILES: CC[C@H](O)C[C@H](O)[C@H](CC(C)C)[C@H](O)c1cc(O)cc(O)c1

MIC (Staphylococcus aureus [4]): 63 µM (≈ 31.2 µg/mL) | MIC (Staphylococcus aureus [5]): 63 µM (≈ 31.2 µg/mL)
SMILES: CCCC(=O)[C@@H](C)C[C@@H](C)C[C@@H](C)CC[C@H](O)C[C@H](O)[C@H](CC(C)C)[C@H](O)c1cc(O)cc(O)c1

MIC (Staphylococcus aureus [4]): 63 µM (≈ 30.2 µg/mL) | MIC (Staphylococcus aureus [5]): 63 µM (≈ 30.2 µg/mL)
SMILES: CCC(=O)[C@@H](C)C[C@@H](C)C[C@@H](C)CC[C@H](O)CC(=O)[C@H](CC(C)C)[C@H](O)c1cc(O)cc(O)c1
